Source: patent US12440500B2, “Phytoecdysones and the derivatives thereof for use in the treatment of neuromuscular diseases” (BIOPHYTIS, priority 2019, dated 2025)

Assays:
[1] = system: murine myotubes C2C12; conditions: murine myotubes C2C12 in vitro; cited from earlier work
[2] = young athletes; cited from earlier work
[3] = system: muscles; conditions: rats in vivo; cited from earlier work
[4] = system: SMA mice (FVB/NRj-SmnΔ7/Δ7 huSMN2+/+ 2 copies); assay: Phenotypic analysis: weight and survival of severe SMA mice under daily gavage; format: in vivo, mouse
Source text: A severe SMA mouse model was used on an FVB/NRj gene pool, characterized by the invalidation of the exon 7 of the murine gene Smn and expressing 2 copies of the human transgene SMN2 (Smn^Δ7/Δ7; huSMN2^+/+) (Hsieh et al., 2000). The mice resulting from these crossings having the “FVB/NRj-Smn^Δ7/Δ7 huSMN2^+/+ 2 copies” genotype are described as “SMA”. These mice are characterized by progressive growth failure which is observed starting from 4 days post-natal and have a degeneration of about 50% of the motor neurons of the ventral horn of the spinal cord at the end of life, progressive muscular atrophy and an average lifespan of about 12 days (Hsieh et al., 2000). The mice having the “FVB/NRj-Smn^+/Δ7 huSMN2^++ 2 copies” genotype have no particular phenotype and are used as so-called “control” mice. The mice were treated via daily gavage of a dose of 50 mg/kg, either with the molecule BIO101 complexed to a vehicle (cyclodextrin in the present case), or with the vehicle alone (VH). The weight and the survival were analyzed on a daily basis until P11. In the rest of the description, n corresponds to the size of the sample and p corresponds to the “p value” used to quantify the statistical significance of a result.
The same type II murine model was used to characterize the phenotypic effects of the molecule BIO103 in a severe SMA model. The mice were treated via daily gavage of a dose of 50 mg/kg, either with the molecule BIO103 complexed with the vehicle (cyclodextrin in the present case), or with the vehicle alone (VH). The weight and the survival were analyzed on a daily basis until P11.

[5] = system: muscles Soleus, Plantaris and Tibialis of SMA mice; assay: Histological analysis of muscle cross-sections (Hematoxylin-Eosin): number and cross-section surface of muscle fibers; format: in vivo, mouse
Method: At P11, one hour after their last gavage, the treated mice were anaesthetized with pentobarbital 1% at 6 μL/g of mouse then the extensor muscles Soleus, with a mixed typology, extensor Plantaris, with a fast typology, and flexor Tibialis, with a fast typology, were sampled in order to conduct histological or molecular studies. After sampling, the muscles Soleus, Plantaris and Tibialis were included individually in a preservation medium then frozen in cooled isopentane. For each muscle, medial cross-sections 10 μm thick were realized. These sections were stained with Hematoxyline-Eosin, dehydrated and mounted in an inclusion medium. The images of these sections were taken with a microscope (with a magnification ×200). In order to obtain images with an impression of relief, the differential interference contrast technique was used. From these images, the number of muscle fibers of each muscle and the cross-section surface of 20% of these fibers were counted using image processing software (FIG. 2).

Row | SMILES | effects on protein syntheses [1] | muscle mass [2] | effects on protein syntheses in muscles [3] | survival at P11 ([4]; 50 mg/kg daily gavage P0 to P11) [%] | loss of weight of the animals ([4]; 50 mg/kg daily gavage from birth to P11, versus vehicle) | atrophy of the muscle fibers (cross-section surface) in relation to healthy control mice ([5]; Plantaris, P11, SMA mice treated P0 to P11 (SMA vehicle 46%)) [%] | atrophy of the muscle fibers (cross-section surface) in relation to healthy control mice ([5]; Soleus, P11, SMA mice treated P0 to P11 (SMA vehicle 50.2%)) [%] | atrophy of the muscle fibers (cross-section surface) in relation to healthy control mice ([5]; Tibialis, P11, SMA mice treated P0 to P11 (SMA vehicle 56.1%)) [%] | proportion of fibers with cross-section surface greater than 400 μm^2 ([5]; Tibialis, versus SMA vehicle) | proportion of small fibers with cross-section surface less than 200 μm^2 ([5]; Tibialis, versus SMA vehicle, p<0.05)
1 | CC(C)(O)CC[C@@H](O)[C@](C)(O)[C@H]1CC[C@@]2(O)C3=CC(=O)[C@@H]4C[C@@H](O)[C@@H](O)C[C@]4(C)[C@H]3CC[C@]12C [20-hydroxyecdysone] | stimulating effects | favors the increase | stimulating effects | – | – | – | – | – | – | –
2 | CCSCC(=O)[C@H]1CC[C@@]2(O)C3=CC(=O)[C@@H]4C[C@@H](O)[C@@H](O)C[C@]4(C)C3CC[C@]12C (stereo partly drawn) [BIO103, (2S,3R,5R,10R,13R,14S,17S)-17-(2-ethylsulfanylacetyl)-2,3,14-trihydroxy-10,13-dimethyl-2,3,4,5,9,11,12,15,16,17-decahydro-1H-cyclopenta[a]phenanthren-6-one] | – | – | – | 66.6 | tends to limit | 15.3 | 37.1 | 22.1 | significant increase | decreases significantly
